Data on 18 compounds can be found in the supplement of paper PMC4977894.

The subject of experiment [1] is Homo sapiens (human subject panel, olfactory perception). The experiment is described as follows: perceived odor pleasantness rating (rating 0-100); higher = more pleasant. In short, it runs like this:
(§1)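 Across ten visits of 100 stimuli, 55 healthy human subjects aged 18–50 sniffed 1 mL of each molecule in paraffin oil in randomized order, at both high and low concentrations. The six lowest performers were excluded. Whenever a subject reported smelling a stimulus, they rated it on a computerized slider that started at 50 and had to be moved, and positions were converted to a 0–100 scale. Each familiarity, intensity and pleasantness figure is a mean across subjects.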

The test system is the same in experiment [2]. As to the kind of experiment: perceived odor intensity rating (rating 0-100); higher = stronger perceived smell. In short, it runs like this:
as §1

Experiment [3] shares this test system. As to the kind of experiment: perceived odor familiarity rating (rating 0-100); higher = more familiar. The method, boiled down: as §1
The mark [4] stands for this setting: odor dilution in paraffin oil: 1/10.
The mark [5] stands for this setting: odor dilution in paraffin oil: 1/1,000.
Setting [6] is: odor dilution in paraffin oil: 1/100,000.
Setting [7] is: odor dilution in paraffin oil: 1/10,000,000.

± gives the standard deviation of the averaged measurements.

Regarding `Cc1cc(C(C)(C)C)c(O)c(C(C)(C)C)c1` [Butylated hydroxytoluene], the “perceived odor pleasantness rating” value in experiment [1] (setting [4]) is 51.9 ± 24; in experiment [1] (setting [5]) it was 51.4 ± 22. Also, the “perceived odor intensity rating” value was determined as 40.3 ± 31 in experiment [2] (setting [4]) and 16.9 ± 24 in experiment [2] (setting [5]). The entries for the “perceived odor familiarity rating” value in experiment [3] (setting [4]) and in experiment [3] (setting [5]) were 43.4 ± 29 and 27.7 ± 29, respectively.
For `CC12CCC(CC1=O)C2(C)C` (stereo not given) [Camphor], the “perceived odor pleasantness rating” value in experiment [1] (setting [5]) was 49.5 ± 25; in experiment [1] (setting [6]), 53.1 ± 22. Also, the results for the “perceived odor intensity rating” value in experiment [2] (setting [5]) and in experiment [2] (setting [6]) were 57.4 ± 30 and 17.3 ± 20, respectively. The “perceived odor familiarity rating” value in experiment [3] (setting [5]) came to 54.4 ± 30; in experiment [3] (setting [6]) it was 31.3 ± 29.
Regarding `Cc1ccc(C(C)C)cc1O` [Carvacrol], the “perceived odor pleasantness rating” value is 48 ± 28 in experiment [1] (setting [5]) and 53.2 ± 24 in experiment [1] (setting [6]). In addition, the figures for the “perceived odor intensity rating” value in experiment [2] (setting [5]) and in experiment [2] (setting [6]) were 74.1 ± 20 and 50.4 ± 26, respectively. Also, the “perceived odor familiarity rating” value in experiment [3] (setting [5]) was 62.7 ± 31; in experiment [3] (setting [6]) it was 58.8 ± 32.
Regarding `OC/C=C/c1ccccc1` [Cinnamyl alcohol], the “perceived odor pleasantness rating” value in experiment [1] (setting [6]) is 32. For the same compound, in experiment [2] (setting [6]), the “perceived odor intensity rating” value is 6. The “perceived odor familiarity rating” value in experiment [3] (setting [6]) was 52.
Consider `O=C(O)CC(O)(CC(=O)O)C(=O)O` [Citric acid], for which the “perceived odor pleasantness rating” value is 51.7 ± 26 in experiment [1] (setting [4]) and 46.7 ± 28 in experiment [1] (setting [5]). In addition, the “perceived odor intensity rating” value was determined as 27.4 ± 28 in experiment [2] (setting [4]) and 14.7 ± 22 in experiment [2] (setting [5]). Also, the “perceived odor familiarity rating” value in experiment [3] (setting [4]) is 33.9 ± 30; in experiment [3] (setting [5]) it was 28.5 ± 31.
On to `O=C1CCCCCC1` [Cycloheptanone], for which the “perceived odor pleasantness rating” value in experiment [1] (setting [5]) was 40.8 ± 28; in experiment [1] (setting [6]) it was 55 ± 19. The “perceived odor intensity rating” value in experiment [2] (setting [5]) came to 69 ± 28; in experiment [2] (setting [6]), 26.4 ± 28. Further, the results for the “perceived odor familiarity rating” value in experiment [3] (setting [5]) and in experiment [3] (setting [6]) were 52.7 ± 30 and 35.8 ± 30, respectively.
As for `C1CCCCC1` [Cyclohexane], the “perceived odor pleasantness rating” value in experiment [1] (setting [4]) worked out at 48.2 ± 27; in experiment [1] (setting [5]), 40.5 ± 24. For the same compound, the “perceived odor intensity rating” value in experiment [2] (setting [4]) was determined as 57.4 ± 34; in experiment [2] (setting [5]) it was 49 ± 34. Moreover, the “perceived odor familiarity rating” value in experiment [3] (setting [4]) was determined as 55.1 ± 29; in experiment [3] (setting [5]), 51.6 ± 32.
As for `O=C(O)CC1CCCCC1` [Cyclohexaneacetic acid], the “perceived odor pleasantness rating” value in experiment [1] (setting [5]) amounted to 28.8 ± 22; in experiment [1] (setting [6]) it was 37.6 ± 23. Also, the “perceived odor intensity rating” value in experiment [2] (setting [5]) stood at 69.9 ± 22; in experiment [2] (setting [6]) it was 29.4 ± 30. Besides, the “perceived odor familiarity rating” value stood at 46.9 ± 28 in experiment [3] (setting [5]) and 32.8 ± 25 in experiment [3] (setting [6]).
Regarding `O=C1CCCCC1` [Cyclohexanone (replicate)], the figures for the “perceived odor pleasantness rating” value in experiment [1] (setting [5]) and in experiment [1] (setting [6]) were 46 ± 27 and 55.4 ± 24, respectively. For the same compound, the “perceived odor intensity rating” value in experiment [2] (setting [5]) amounted to 66.5 ± 26; in experiment [2] (setting [6]), 20.8 ± 29. Moreover, the entries for the “perceived odor familiarity rating” value in experiment [3] (setting [5]) and in experiment [3] (setting [6]) were 51.6 ± 30 and 28.4 ± 28, respectively.
Regarding `O=C1CCCCC1` [Cyclohexanone], the “perceived odor pleasantness rating” value was 38 ± 27 in experiment [1] (setting [5]) and 47.9 ± 23 in experiment [1] (setting [6]). Besides, the figures for the “perceived odor intensity rating” value in experiment [2] (setting [5]) and in experiment [2] (setting [6]) were 69.9 ± 22 and 19.6 ± 27, respectively. Further, the entries for the “perceived odor familiarity rating” value in experiment [3] (setting [5]) and in experiment [3] (setting [6]) were 52.5 ± 28 and 26.7 ± 25, respectively.
As to `SC1CCCC1` [Cyclopentanethiol], the “perceived odor pleasantness rating” value worked out at 16.5 ± 22 in experiment [1] (setting [6]) and 24 ± 23 in experiment [1] (setting [7]). The “perceived odor intensity rating” value in experiment [2] (setting [6]) came out at 92.4 ± 10; in experiment [2] (setting [7]) it was 78.1 ± 21. Further, the “perceived odor familiarity rating” value in experiment [3] (setting [6]) worked out at 55.4 ± 34; in experiment [3] (setting [7]) it was 57.8 ± 33.
Take `O=C1CCCC1` [Cyclopentanone]: the “perceived odor pleasantness rating” value in experiment [1] (setting [4]) stood at 29.6 ± 25; in experiment [1] (setting [5]), 36 ± 25. The “perceived odor intensity rating” value in experiment [2] (setting [4]) amounted to 81.4 ± 23; in experiment [2] (setting [5]), 52.3 ± 33. Moreover, the “perceived odor familiarity rating” value was found to be 48.9 ± 34 in experiment [3] (setting [4]) and 33.1 ± 30 in experiment [3] (setting [5]).
In the case of `CC12CCC(CC1=O)C2(C)C` [D-Camphor], the “perceived odor pleasantness rating” value turned out to be 52.1 ± 30 in experiment [1] (setting [4]) and 52.3 ± 28 in experiment [1] (setting [5]). Also, the “perceived odor intensity rating” value worked out at 89.8 ± 17 in experiment [2] (setting [4]) and 63.8 ± 31 in experiment [2] (setting [5]). The “perceived odor familiarity rating” value in experiment [3] (setting [4]) stood at 81 ± 26; in experiment [3] (setting [5]), 68.5 ± 25.
Turning to `C=C(C)[C@@H]1CC[C@@H](C)C(=O)C1` [D-Dihydrocarvone], the entries for the “perceived odor pleasantness rating” value in experiment [1] (setting [4]) and in experiment [1] (setting [5]) were 39.5 ± 26 and 50.2 ± 23, respectively. Besides, the “perceived odor intensity rating” value in experiment [2] (setting [4]) is 81.9 ± 16; in experiment [2] (setting [5]), 45.9 ± 29. Further, the results for the “perceived odor familiarity rating” value in experiment [3] (setting [4]) and in experiment [3] (setting [5]) were 52.5 ± 34 and 47.2 ± 28, respectively.
Regarding `OC[C@@H](O)[C@@H](O)[C@H](O)[C@@H](O)CO` [D-Sorbitol], the figures for the “perceived odor pleasantness rating” value in experiment [1] (setting [4]) and in experiment [1] (setting [5]) were 29.8 ± 27 and 45 ± 28, respectively. Moreover, the “perceived odor intensity rating” value in experiment [2] (setting [4]) came to 73.4 ± 22; in experiment [2] (setting [5]), 39 ± 33. Moreover, the “perceived odor familiarity rating” value in experiment [3] (setting [4]) came out at 55.1 ± 31; in experiment [3] (setting [5]), 44.6 ± 31.
`OC1CCC2CCCCC2C1` (stereo not given) [Decahydro-2-naphthol]: the “perceived odor pleasantness rating” value in experiment [1] (setting [5]) was 49.9 ± 26; in experiment [1] (setting [6]), 50.6 ± 24. Moreover, the “perceived odor intensity rating” value in experiment [2] (setting [5]) came to 54.8 ± 29; in experiment [2] (setting [6]), 23.1 ± 27. Besides, the “perceived odor familiarity rating” value in experiment [3] (setting [5]) stood at 48.7 ± 29; in experiment [3] (setting [6]) it was 36.3 ± 32.
For `CCCCCCCCCC(OC)OC` [Decanal dimethyl acetal], the “perceived odor pleasantness rating” value in experiment [1] (setting [4]) came to 50.2 ± 29; in experiment [1] (setting [5]), 53.6 ± 22. For the same compound, the entries for the “perceived odor intensity rating” value in experiment [2] (setting [4]) and in experiment [2] (setting [5]) were 70.7 ± 25 and 29.7 ± 30, respectively. Besides, the “perceived odor familiarity rating” value in experiment [3] (setting [4]) is 47.6 ± 34; in experiment [3] (setting [5]) it was 41.2 ± 34.
Regarding `CCSSCC` [Diethyl disulfide], the “perceived odor pleasantness rating” value in experiment [1] (setting [5]) was determined as 21.3 ± 27; in experiment [1] (setting [6]), 28.4 ± 24. The “perceived odor intensity rating” value came to 85.9 ± 16 in experiment [2] (setting [5]) and 60.6 ± 34 in experiment [2] (setting [6]). In addition, the “perceived odor familiarity rating” value is 52.5 ± 35 in experiment [3] (setting [5]) and 51.2 ± 32 in experiment [3] (setting [6]).
